# Species: Rattus norvegicus
# Assay: Open TG-GATES - Regimen: Single
# Format: toxicity, organism-based, Sprague-Dawley
# Parameters: regimen Single, gender Male, age 6 weeks
# Details: in vivo, po, 0 mg/kg, route gavage, dose level Control; for APTT / Bas / Eos / Fbg / Hb / Ht / Lym / MCH / MCHC / MCV / Mono / Neu / PT / RBC / Ret / WBC / Plat: tissue Blood; for KIDNEY_L / KIDNEY_R / KIDNEY_TOTAL: tissue Kidney; for LIVER: tissue Liver; for ALP / ALT / AST / BUN / CRE / Ca / DBIL / GLC / IP / K / LDH / Na / PL / RALB / TBIL / TC / TG / TP / gamma-GTP: tissue Plasma
smiles,measurement,setting,value
CSc1ccc2c(c1)N(CCC1CCCCN1C)c1ccccc1S2 (configuration not stated) [THIORIDAZINE],TERMINAL_BW,3 h,216.6 g
same,APTT,3 h,16 s
same,Bas,3 h,0%
same,Eos,3 h,0.6%
same,Fbg,3 h,206.6 mg/dL
same,Hb,3 h,12.9 g/dL
same,Ht,3 h,38.9%
same,Lym,3 h,82.2%
same,MCH,3 h,21.8 pg
same,MCHC,3 h,33.2%
same,MCV,3 h,65.7 fL
same,Mono,3 h,7.4%
same,Neu,3 h,10%
same,PT,3 h,12.1 s
same,RBC,3 h,592 x10_4/ul
same,Ret,3 h,8.6%
same,WBC,3 h,109.6 x10_2/uL
same,KIDNEY_L,3 h,1 g
same,KIDNEY_R,3 h,1 g
same,KIDNEY_TOTAL,3 h,2 g
same,LIVER,3 h,10.6 g
same,ALP,3 h,789.2 IU/L
same,ALT,3 h,37.2 IU/L
same,AST,3 h,71 IU/L
same,BUN,3 h,12.4 mg/dL
same,CRE,3 h,0.5 mg/dL
same,Ca,3 h,11.4 mg/dL
same,DBIL,3 h,0.006 mg/dL
same,GLC,3 h,197.6 mg/dL
same,IP,3 h,10.1 mg/dL
same,K,3 h,5 meq/L
same,LDH,3 h,94.4 IU/L
same,Na,3 h,137.4 meq/L
same,PL,3 h,136.2 mg/dL
same,RALB,3 h,3.8 g/dL
same,TBIL,3 h,0.3 mg/dL
same,TC,3 h,72.2 mg/dL
same,TG,3 h,93.4 mg/dL
same,TP,3 h,5.5 g/dL
same,gamma-GTP,3 h,0.8 IU/L
same,TERMINAL_BW,6 h,212.3 g
same,APTT,6 h,16.3 s
same,Bas,6 h,0%
same,Eos,6 h,1%
same,Fbg,6 h,216.8 mg/dL
same,Hb,6 h,13.7 g/dL
same,Ht,6 h,40.9%
same,Lym,6 h,74%
same,MCH,6 h,21.5 pg
same,MCHC,6 h,33.3%
same,MCV,6 h,64.4 fL
same,Mono,6 h,8.2%
same,Neu,6 h,17.2%
same,PT,6 h,12.1 s
same,Plat,6 h,98.4 x10_4/uL
same,RBC,6 h,635.6 x10_4/ul
same,Ret,6 h,7.7%
same,WBC,6 h,117.4 x10_2/uL
same,KIDNEY_L,6 h,0.9 g
same,KIDNEY_R,6 h,1 g
same,KIDNEY_TOTAL,6 h,1.9 g
same,LIVER,6 h,9.5 g
same,ALP,6 h,834 IU/L
same,ALT,6 h,28 IU/L
same,AST,6 h,60.4 IU/L
same,BUN,6 h,12.4 mg/dL
same,CRE,6 h,0.5 mg/dL
same,Ca,6 h,10.9 mg/dL
same,DBIL,6 h,0.016 mg/dL
same,GLC,6 h,189 mg/dL
same,IP,6 h,10.1 mg/dL
same,K,6 h,5 meq/L
same,LDH,6 h,100.4 IU/L
same,Na,6 h,137.4 meq/L
same,PL,6 h,147 mg/dL
same,RALB,6 h,3.8 g/dL
same,TBIL,6 h,0.4 mg/dL
same,TC,6 h,80.2 mg/dL
same,TG,6 h,84.4 mg/dL
same,TP,6 h,5.5 g/dL
same,gamma-GTP,6 h,2 IU/L
same,TERMINAL_BW,9 h,210.2 g
same,APTT,9 h,16.6 s
same,Bas,9 h,0%
same,Eos,9 h,1.2%
same,Fbg,9 h,221.4 mg/dL
same,Hb,9 h,13.4 g/dL
same,Ht,9 h,40.6%
same,Lym,9 h,73.2%
same,MCH,9 h,21.6 pg
same,MCHC,9 h,33.1%
same,MCV,9 h,65.4 fL
same,Mono,9 h,8.4%
same,Neu,9 h,17.2%
same,PT,9 h,12.2 s
same,Plat,9 h,111.7 x10_4/uL
same,RBC,9 h,620.6 x10_4/ul
same,Ret,9 h,7.6%
same,WBC,9 h,117.1 x10_2/uL
same,KIDNEY_L,9 h,0.9 g
same,KIDNEY_R,9 h,1 g
same,KIDNEY_TOTAL,9 h,1.9 g
same,LIVER,9 h,8.7 g
same,ALP,9 h,724 IU/L
same,ALT,9 h,30.6 IU/L
same,AST,9 h,67.4 IU/L
same,BUN,9 h,12.2 mg/dL
same,CRE,9 h,0.5 mg/dL
same,Ca,9 h,11.1 mg/dL
same,DBIL,9 h,0.034 mg/dL
same,GLC,9 h,197.6 mg/dL
same,IP,9 h,10.7 mg/dL
same,K,9 h,4.9 meq/L
same,LDH,9 h,63 IU/L
same,Na,9 h,139.6 meq/L
same,PL,9 h,147.4 mg/dL
same,RALB,9 h,4 g/dL
same,TBIL,9 h,0.3 mg/dL
same,TC,9 h,87.6 mg/dL
same,TG,9 h,35.8 mg/dL
same,TP,9 h,5.6 g/dL
same,gamma-GTP,9 h,1.2 IU/L
same,TERMINAL_BW,24 h,232.2 g
same,APTT,24 h,15.8 s
same,Bas,24 h,0%
same,Eos,24 h,0.8%
same,Fbg,24 h,225 mg/dL
same,Hb,24 h,13.2 g/dL
same,Ht,24 h,38.9%
same,Lym,24 h,73%
same,MCH,24 h,22 pg
same,MCHC,24 h,33.9%
same,MCV,24 h,64.9 fL
same,Mono,24 h,9.4%
same,Neu,24 h,16.8%
same,PT,24 h,12.2 s
same,Plat,24 h,107.1 x10_4/uL
same,RBC,24 h,600.2 x10_4/ul
same,Ret,24 h,8.3%
same,WBC,24 h,127.4 x10_2/uL
same,KIDNEY_L,24 h,1 g
same,KIDNEY_R,24 h,1 g
same,KIDNEY_TOTAL,24 h,2 g
same,LIVER,24 h,11.4 g
same,ALP,24 h,895 IU/L
same,ALT,24 h,36 IU/L
same,AST,24 h,65.2 IU/L
same,BUN,24 h,18.4 mg/dL
same,CRE,24 h,0.5 mg/dL
same,Ca,24 h,11 mg/dL
same,DBIL,24 h,0.016 mg/dL
same,GLC,24 h,193.4 mg/dL
same,IP,24 h,8.1 mg/dL
same,K,24 h,5.1 meq/L
same,LDH,24 h,73 IU/L
same,Na,24 h,138.4 meq/L
same,PL,24 h,150.8 mg/dL
same,RALB,24 h,3.9 g/dL
same,TBIL,24 h,0.3 mg/dL
same,TC,24 h,81.6 mg/dL
same,TG,24 h,87.8 mg/dL
same,TP,24 h,5.7 g/dL
